Experimental data from the METLIN SMRT retention time set (Domingo-Almenara et al. 2019).

Assay: gradient 5% acetonitrile 3 min, to 50% in 2 min, to 85% in 15 min, held 3 min, 100 µL/min
Conditions: column: Zorbax Extend-C18 2.1 x 50 mm; eluents: water / acetonitrile, 0.1% formic acid
Method in brief: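 Over 3 months, pure standards in mixtures of ~100 molecules were run by HPLC coupled to a quadrupole time-of-flight mass spectrometer in positive and negative ionization mode. The column was a Zorbax Extend-C18 (2.1 × 50 mm, 1.8 μm) at 100 μL/min, eluted with water and acetonitrile each holding 0.1% formic acid, with 40 μL dead and 900 μL dwell volumes. Retention time was determined from adduct peaks chosen by software and checked manually.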

RP-LC retention time | SMILES
1070 s | CCCn1cc2c3c(cccc31)CN(C(=O)Nc1cccc(C)c1)CC2
968 s | O=C(Cn1cccc(-c2nc(-c3ccccc3)no2)c1=O)Nc1ccc(Br)cc1
805 s | O=C(Cc1csc(NC(=O)NC2CCCCC2)n1)NCCc1ccc(Cl)cc1
677 s | CCNc1nc(C)cc(N2CCN(S(=O)(=O)c3ccc(OC)cc3)CC2)n1
930 s | Cc1ccc(-c2cn3c(CC(=O)NCC(C)c4ccccc4)csc3n2)cc1C (configuration not stated)
611 s | Cc1nc(N)n(CC(=O)NCc2ccccc2)c(=O)c1C
572 s | CC(C(=O)NCCN1CCN(C)CC1)n1c2ccccc2c2cnn(C)c(=O)c21 (configuration not stated)
814 s | O=C(NCc1ccc(F)cc1Cl)c1cn(-c2ccc(NC(=O)C3CC3)cn2)cn1
836 s | Cc1ccc(-c2noc(C3CC3)n2)cc1S(=O)(=O)N1CCC(C(=O)NC2CC2)CC1
632 s | Cc1ccc(Nc2cc(N3CCC(C(=O)N4CCCC4)CC3)ncn2)cc1
731 s | Cc1ccc(NC(=O)N2CC(c3nc(C)no3)C3(CCOCC3)C2)c(C)c1 (configuration not stated)
641 s | CCn1cc(-c2ccncc2)cc1C(=O)NCc1ccc2c(c1)OCO2
600 s | COc1cc(CCC(=O)N2C[C@@H](C(N)=O)[C@H](c3nc(C)no3)C2)on1
995 s | CCCn1cc(S(=O)(=O)Nc2cc(Cl)ccc2OC)c2cccnc21
793 s | COc1cccc(S(=O)(=O)N2CCc3c(c(CN(C(C)=O)c4ccccc4)nn3C)C2)c1
585 s | COc1ccc(CNC(=O)CN2CCc3[nH]c4cc5c(cc4c(=O)c3C2)OCCO5)cc1OC
943 s | CCOc1ccc(C(=O)NCc2c(-c3ccccc3)nc3sc(CC)nn23)cc1
704 s | Cc1c(C)n(C)c2ccc(C(N)=O)cc12
676 s | CCOC(=O)c1ccc(NC(=O)Cn2nc3n(c2=O)CCCC3)cc1
938 s | COc1ccccc1NC(=O)C(C)C1CCN(C(=O)Nc2ccc(Cl)cc2)CC1 (configuration not stated)

RP-LC retention time | SMILES
1330 s | Cc1cccc(-c2nc(-c3ccc(-n4cccn4)nc3)no2)c1
694 s | COc1ccc(CNC(=O)Nc2cc3c(cc2N2CCOCC2)n(C)c(=O)n3C)cc1
1170 s | COc1ccc(-c2csc(Nc3ccc(Br)cn3)n2)cc1
911 s | CCSC(=O)N1c2ccc(OC)cc2C=CC1C#N (configuration not stated)
1090 s | COC(=O)c1ccccc1Nc1c(-c2cccc(Br)c2)nc2cnccn12
753 s | Cn1cc(CN2CCC(C(=O)NCCCc3ccccc3)CC2)c2cc(Cl)ccc21
1240 s | CC(C)c1ccc(OCC(=O)Nc2nc(-c3ccccc3)cs2)cc1
1040 s | COCCn1c(SCc2nc(-c3ccccc3)no2)nc2cc3c(cc2c1=O)OCO3
728 s | Cc1nn2c(CNC(=O)c3ccco3)c(-c3ccccc3)nc2s1
962 s | Cc1cccc(C(=O)Nc2nc(-c3ccc4c(c3)NC(=O)C(C)O4)cs2)c1 (configuration not stated)
881 s | Cc1cc(C)c2sc(NC(=O)c3ccco3)nc2c1
583 s | CN1CCN(CCCNC(=O)CCC(=O)N2CCCn3nc(-c4cn(C)c5ccccc45)cc32)CC1
931 s | CCc1noc(-c2ccnc(-n3ncc(C(=O)NCC(C)C)c3C)c2)n1
814 s | CCc1noc(-c2ccc(-n3cnc(C(=O)NCC(C)C)c3)nc2)n1
761 s | COC(=O)c1ncn2c1C(=O)N(CCCc1ccccc1)C(C)(C(=O)NCc1ccccc1)C2 (configuration not stated)
1020 s | CCn1cc(Br)c(C(=O)Nc2ccc(F)c(Cl)c2)n1
776 s | Cc1ccc(NS(=O)(=O)c2cc(-c3[nH]ncc3C(=O)N3CCCC3)oc2C)cc1C
594 s | Cn1c(=O)c(SCC(=O)NCCN2CCCCC2)nc2ccccc21
644 s | CCn1c(CNC(=O)C2CCC2)nc2c1CN(S(=O)(=O)c1ccc(F)cc1)CC2

Second part, the molecule before the results:

SMILES | RP-LC retention time
CCOC(=O)c1ccc(NC(=O)C2CCN(C(=O)C3Sc4ccccc4NC3=O)CC2)cc1 (configuration not stated) | 805 s
O=C(Nc1ccccc1)C1CCc2nc(N3CCN(C(=O)C4CCC4)CC3)sc2C1 (configuration not stated) | 608 s
COCCN1C(=O)[C@H]2CN(Cc3cccc(Cl)c3)C[C@H]2C1=O | 633 s
Cc1ccc(N2CCn3c2nc2c3c(=O)n(CC(=O)O)c(=O)n2C)cc1C | 771 s
COc1ccccc1CNC(=O)C1CCCN1S(=O)(=O)c1ccc2c(c1)C(C)(C)C(=O)N2C (configuration not stated) | 843 s
CNC(=O)C1CCCN(S(C)(=O)=O)CCC(=O)NCC1 (configuration not stated) | 539 s
CCCN(CC1CCOC1)C(=O)Nc1ccc(Cl)cc1 (configuration not stated) | 843 s
O=C(c1cccs1)N1CCC2(CC1)NC(=O)N(Cc1ccc(Cl)cc1)C2=O | 816 s
Cc1cc(N2CCCC2)n2nc(CN3CCN(c4cccc(Cl)c4)CC3)nc2n1 | 663 s
Cc1csc(C(=O)N2CC3CC2C(=O)O3)c1 (configuration not stated) | 624 s
Cc1c(O)ccc2c1oc(=O)c1ccccc12 | 808 s
O=C(Cc1ccccc1Br)N1CCN(c2cc(-c3ccc(Cl)cc3)[nH]n2)CC1 | 939 s
Cc1ccsc1C(=O)N1CCN(c2ccc(=O)n(-c3ccc(Cl)cc3)n2)CC1 | 878 s
Cc1cc2c(cc1S(=O)(=O)N1CCCC1C(=O)Nc1ccc(Cl)cc1F)OCC(=O)N2 (configuration not stated) | 843 s
COc1ccccc1-c1coc2cc(OC(=O)c3cccs3)ccc2c1=O | 992 s
Cn1cc(S(=O)(=O)N2CCCCC2)cc1C(=O)Nc1ccc2c(c1)OCO2 | 924 s
COc1ccc(-c2ncccc2CNS(=O)(=O)c2ccc(C(F)(F)F)cc2)cc1 | 764 s
CC(C)N1CCN(C(=O)CN2CCN(Cc3ccccc3)C2=O)CC1 | 565 s
Cc1oc(-c2[nH]ncc2C(=O)N(C)C)cc1S(=O)(=O)N1CCOCC1 | 604 s
CCN(CC)S(=O)(=O)c1ccc2c(c1)N(CC(=O)NCCN(C)C)C(=O)C1CCCCN21 (configuration not stated) | 633 s
Cc1cccc(NC(=O)C2CCN(S(=O)(=O)c3cc(C(=O)N4CCOCC4)cs3)CC2)c1C | 760 s
CCOC(=O)CNC(=O)NC12CC3CC(CC(C3)C1)C2 | 802 s
O=C(CSc1nnc2sc3ccccc3n12)c1ccc(F)cc1 | 778 s
O=C(NCc1ccco1)C1CCN(Cc2cc3ccccc3n2Cc2ccccc2)CC1 | 747 s
O=C(CN1C(=O)C(C(=O)N2CCCC2)Sc2ccccc21)N1CCN(c2ccccc2)CC1 (configuration not stated) | 842 s
COCCn1cc2c3c(cccc31)CN(C(=O)Nc1cc(F)cc(F)c1)CC2 | 963 s
COCCC1CCN(C(=O)C2CCN(C(C)=O)CC2)CC1 | 606 s
Cc1ccc(NC(=O)CN2C(=O)CCc3cc(S(=O)(=O)N4CCCCC4C)ccc32)c(C)c1 (configuration not stated) | 945 s
